The values that follow come from US8283373B2, “Inhibitors of cytosolic phospholipase A2” (Pfizer Inc., priority 2005, dated 2012).

The test system of assay [1] is collagen-induced arthritis. As to the kind of experiment: Collagen-induced arthritis (CIA) model. The assay is classed as in vivo, mouse. The procedure:
The compound of Example 10 was tested in the mouse CIA model, which has many immunologic and pathologic similarities to human rheumatoid arthritis (See Trentham, D. E., et al., supra). Arthritis was induced in DBA/1LacJ mice by intradermal injection of an emulsion of bovine type II collagen and CFA followed by a boost with an intradermal injection of bovine type II collagen emulsified in incomplete Freund's Adjuvant 21 days after the initial immunization. […] At that point animals were randomly assigned to treatment groups and administered the compound of Example 10 (100 mg/kg) PO BID for 28 days. Control groups received celecoxib, vehicle alone or were left untreated. All animals were scored daily in a blinded fashion for visual signs of disease symptoms.
The mean scores of the group treated with the compound of Example 10 were compared to the vehicle-control group values using the Student's t-test.
After completion of the experiments, paws were processed for histology. Two board certified veterinary pathologist evaluated the slides in a blinded fashion. Each paw was assigned a numerical score for both arthritis severity and the general number of joints affected.

Assay [2] concerns the target T1, cPLA2α (Homo sapiens, UniProt P47712).
T1 sequence (P47712 1-749): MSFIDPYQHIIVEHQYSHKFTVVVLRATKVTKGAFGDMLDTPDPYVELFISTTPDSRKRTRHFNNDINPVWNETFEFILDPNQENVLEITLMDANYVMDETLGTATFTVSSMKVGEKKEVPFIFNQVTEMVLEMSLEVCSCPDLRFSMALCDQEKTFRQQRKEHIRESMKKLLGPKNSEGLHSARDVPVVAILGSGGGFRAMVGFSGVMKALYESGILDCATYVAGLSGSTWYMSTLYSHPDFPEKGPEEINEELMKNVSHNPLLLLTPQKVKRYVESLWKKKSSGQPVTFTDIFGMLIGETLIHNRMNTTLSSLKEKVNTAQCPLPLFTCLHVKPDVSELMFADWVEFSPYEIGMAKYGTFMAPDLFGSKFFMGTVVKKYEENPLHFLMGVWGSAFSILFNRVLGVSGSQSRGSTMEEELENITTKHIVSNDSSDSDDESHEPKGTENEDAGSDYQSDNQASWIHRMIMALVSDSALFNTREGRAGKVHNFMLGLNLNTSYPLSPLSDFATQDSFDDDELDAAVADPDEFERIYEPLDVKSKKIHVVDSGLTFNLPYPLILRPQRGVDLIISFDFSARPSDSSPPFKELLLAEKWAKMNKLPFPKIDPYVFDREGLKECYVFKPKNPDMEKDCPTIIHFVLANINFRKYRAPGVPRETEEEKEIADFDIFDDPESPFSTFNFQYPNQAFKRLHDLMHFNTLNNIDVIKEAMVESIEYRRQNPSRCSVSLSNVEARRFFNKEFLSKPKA
As to the kind of experiment: GLU Micelle Assay. Format: biochemical. The method in brief: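 Fluorogenic micelle assay with 1 μg/ml cPLA2α and 90 μM GLU substrate plus 120 μM DTPC in 940 μM Triton X-100, 50 mM Hepes pH 7.4, 0.3 mM EDTA, 1 mM CaCl2, 300 mM KCl. Fluorescence (ex 355/em 460) was read every 4 min for 84 min. Percent inhibition came from slopes relative to positive and negative controls.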

For assay [3], the system named is primary cerebellar granule neurons. As to the kind of experiment: Oxygen-glucose deprivation (OGD) in cultured cerebellar granule neurons. Format: cell-based, rat. The conditions noted are these: for percent cell death (lactate dehydrogenase release), Avg.: OGD 2 hours, control 14, OGD 51. The procedure:
Primary cerebellar granule neurons were isolated from P5-8 rat pups. Briefly, cerebelli were collected and pooled in ice-cold phosphate buffer saline (PBS) without Ca^2+ and Mg^2+. The tissue was finely chopped and transferred to an enzymatic dissociation media containing 20 IU/ml papain in Earle's balanced salt solution (Worthington Biochemical, Freehold, N.J.) and incubated for 30 minutes at 37° C. After enzymatic dissociation, the papain solution was aspirated and the tissue mechanically triturated with a fire-polished Pasteur pipette in complete media [Neurobasal Medium with B-27 supplement (Gibco, Grand Island, N.Y.), penicillin/streptomycin, aphidicolin, glutamate, potassium chloride] containing 2,000 IU/ml DNase and 10 mg/ml ovomucoid protease inhibitor. Single-cell suspensions in complete media were plated on pre-coated poly-L-ornithine/laminin 24-well plates (Becton-Dickinson, Bedford, Mass.) at a density of
5.0×10^5 cells/well. Cells were maintained for two weeks prior to experimentation.
Cultures were treated with Compound A at various concentrations, 60 minutes before OGD. Media was removed and replaced with deoxygenated buffer in an anaerobic chamber (80% nitrogen, 10% hydrogen, 10% carbon dioxide gas mixture). Fresh Compound A, Example 34 or Example 41 was added to the cultures and maintained in the anaerobic chamber for 2 hours. At the end of the incubation, fresh media was exchanged and fresh Compound A was added. Cultures were maintained for an additional 24 hours in a normoxic incubator. Cell death was determined by measuring lactate dehydrogenase release into the media 24 hours later (Roche Biochemicals). In the table below, values are shown for the control, OGD, various concentrations of Compound A, and MK801, a NMDA receptor antagonist, which is a positive control.

Molecules are shown by their SMILES. “Also recorded” adds a separate entry of the source.

`O=C(O)c1ccc(CCCc2c(CCNS(=O)(=O)Cc3ccccc3C(F)(F)F)n(C(c3ccccc3)c3ccccc3)c3ccc(Cl)cc23)cc1` [Example 10, 4-(3-{5-chloro-1-(diphenylmethyl)-2-[2-({[2-(trifluoromethyl)benzyl]sulfonyl}amino)ethyl]-1H-indol-3-yl}propyl)benzoic acid]: in assay [1] (100 mg/kg BID), the “group mean severity scores (paw histology)” value is reported as “lowest group mean severity scores” and the “percentage of unaffected (grade 0) paws (histology)” value was “highest percentage of unaffected (grade 0) paws”. Moreover, the “number of animals without disease symptoms” value in assay [1] (100 mg/kg PO BID) is “greatest”. Also, in assay [1] (100 mg/kg PO BID for 28 days, semi-therapeutic, from day 10), the “disease severity scores vs vehicle control” value is on record as “statistically significant decrease; also recorded: significant reduction of disease”. For the same molecule, the “average severity grade (histology), pathologist 1” value in assay [1] (100 mg/kg, vehicle 2.1) is recorded as 0.9. The “average severity grade (histology), pathologist 2” value in assay [1] (100 mg/kg, vehicle 3.0) came out at 2.1. Further, half-maximal inhibition in assay [2] (IC50) required 9 nM.

In the case of `Cc1cccc(C)c1CS(=O)(=O)NCCc1c(CCCc2ccc(C(=O)O)cc2)c2cc(Cl)ccc2n1C(c1ccccc1)c1ccccc1` [Compound A, 4-{3-[1-benzhydryl-5-chloro-2-(2-{[(2,6-dimethylbenzyl)sulfonyl]amino}ethyl)-1H-indol-3-yl]propyl}benzoic acid], the “protection of cultured neurons from OGD-induced cell death” value in assay [3] was “effective in protecting cultured neurons from OGD-induced cell death”. Further, the “percent cell death (lactate dehydrogenase release), Avg.” value in assay [3] (0.1 μM) stood at 38%; in assay [3] (0.3 μM) it was 31%; in assay [3] (1 μM), 27%; in assay [3] (3 μM), 20%.
